Laboratory results taken from patent publication US20110124657A1, “METHOD FOR SCREENING OF 5HT7 RECEPTOR LIGANDS BASED ON A NEW PHARMACOPHORE MODEL AND A DESCRIPTOR'S PROFILE FILTER” (LABORATORIOS DEL DR. ESTEVE, S.A., priority 2008, published 2011).
Like-named read-outs stand apart in the source and are kept apart here.

Target: T1, Cloned Human Serotonin Receptor, Subtype 7 (h5HT7), expressed in CHO cells (Homo sapiens, UniProt P34969)
T1 construct: purchased PerkinElmer 6120512; host or cells: CHO cells (membranes coated on FlashPlate)
Assay: Radioligand binding, [125I]LSD, Flashplate
Details: for inhibition at 1 µM: read-out: %-Inhib. (10^−6 M)
Experimental: Radioligand binding assays were performed using the Cloned Human Serotonin Receptor, Subtype 7 (h5HT7), expressed in CHO cells, coated on Flashplate (Basic FlashPlate Cat.: SMP200) from PerkinElmer (Cat.: 6120512). The protocol assay was essentially the recommended protocol in the Technical Data Sheet by PerkinEmer Life and Analytical Sciences. The Mass membrane protein/well was typically 12 μg and the Receptor/well was about 9-10 fmoles. The Flashplate were let equilibrate at room temperature for one hour before the addition of the components of the assay mixture. The binding buffer was: 50 mM Tris-HCl, pH 7.4, containing 10 mM MgCl2, 0.5 mM EDTA and 0.5% BSA. The radioligand was [^125I]LSD at a final concentration of 0.82 nM. Nonspecific binding was determined with 50 μM of Clozapine. The assay volume was 25 μl. TopSeal-A were applied onto Flashplate microplates and they were incubated at room temperature for 240 minutes in darkness. The radioactivity were quantified by liquid scintillation spectrophotometry (Wallac 1450 Microbeta Trilux) with a count delay of 4 minutes prior to counting and a counting time of 30 seconds per well. Competition binding data were analyzed by using the LIGAND program (Munson and Rodbard, LIGAND: A versatile, computerized approach for characterization of ligand-binding systems. Anal. Biochem. 107: 220-239, 1980) and assays were performed in triplicate determinations for each point.

[1] = compound at 10^−6 M, radioligand [125I]LSD 0.82 nM
[2] = radioligand [125I]LSD 0.82 nM, triplicate determinations, read-out: IC50

T1 sequence (P34969 whole entry): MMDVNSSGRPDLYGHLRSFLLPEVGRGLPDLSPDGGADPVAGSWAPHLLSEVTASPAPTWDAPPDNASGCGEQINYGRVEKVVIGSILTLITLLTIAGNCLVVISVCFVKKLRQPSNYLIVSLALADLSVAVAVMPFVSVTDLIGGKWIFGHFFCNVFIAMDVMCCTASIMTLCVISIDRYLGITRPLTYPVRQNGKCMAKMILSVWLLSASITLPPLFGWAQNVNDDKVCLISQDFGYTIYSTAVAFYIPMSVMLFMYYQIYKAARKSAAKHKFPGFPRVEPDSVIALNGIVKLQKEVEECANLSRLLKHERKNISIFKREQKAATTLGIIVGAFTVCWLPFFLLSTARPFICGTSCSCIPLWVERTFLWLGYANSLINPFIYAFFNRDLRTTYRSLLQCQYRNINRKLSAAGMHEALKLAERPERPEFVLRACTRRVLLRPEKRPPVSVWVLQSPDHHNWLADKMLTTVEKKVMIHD

inhibition at 1 µM [1] [%] | IC50 [2] [nM] | SMILES | IC50 [nM] | inhibition at 1 µM [%]
 |  | O=C(c1cccs1)C1CN2CCC1CC2 (stereo not drawn) [quinuclidin-3-yl(thiophen-2-yl)methanone] | 983 | 52.1
 |  | COc1ccc(C(C)C)cc1CN1CCN(c2cccc3[nH]ccc23)CC1 [4-(4-(5-isopropyl-2-methoxybenzyl)piperazin-1-yl)-1H-indole] | 28.7 | 76.6
65.7 | 1390 | COc1ccccc1N1CCN(CCC(=O)Nc2ccc3c(c2)CCC3)CC1 [N-(2,3-dihydro-1H-inden-5-yl)-3-(4-(2-methoxyphenyl)piperazin-1-yl)propanamide] |  | 
82.5 |  | CC(C)Oc1ccccc1N1CCN(Cc2ccc(Cl)nc2)CC1 [1-((6-chloropyridin-3-yl)methyl)-4-(2-isopropoxyphenyl)piperazine] |  | 
76.1 | 236 | O=c1[nH]c2ccccc2n1C1CCN(CCOc2ccccc2)CC1 [1-(1-(2-phenoxyethyl)piperidin-4-yl)-1H-benzo[d]imidazol-2(3H)-one] |  | 
78.5 | 139 | COc1ccccc1N1CCN(CCC(O)c2ccccc2)CC1 (stereo not drawn) [3-(4-(2-methoxyphenyl)piperazin-1-yl)-1-phenylpropan-1-ol] |  | 
 |  | CCOc1ccccc1N1CCN(Cc2c[nH]c3ccccc23)CC1 [3-((4-(2-ethoxyphenyl)piperazin-1-yl)methyl)-1H-indole] | 440 | 70
85.3 | 314 | O=c1[nH]c2ccccc2n1C1=CCN(CCOc2ccccc2)CC1 [1-(1-(2-phenoxyethyl)-1,2,3,6-tetrahydropyridin-4-yl)-1H-benzo[d]imidazol-2(3H)-one] |  | 

SMILES | inhibition at 1 µM [1] [%] | IC50 [2] [nM] | IC50 [nM] | inhibition at 1 µM [%]
CN(C)S(=O)(=O)c1ccc2[nH]cc(CCN)c2c1 [3-(2-aminoethyl)-N,N-dimethyl-1H-indole-5-sulfonamide] |  | 173 |  | 84.3
CC(C)Oc1ccccc1N1CCN(Cc2ccc(-n3ccnc3)cc2)CC1 [1-(4-(1H-imidazol-1-yl)benzyl)-4-(2-isopropoxyphenyl)piperazine] |  | 278 |  | 74.3
O=c1[nH]c2ccccc2n1C1=CCN(CCCOc2ccccc2)CC1 [1-(1-(3-phenoxypropyl)-1,2,3,6-tetrahydropyridin-4-yl)-1H-benzo[d]imidazol-2(3H)-one] |  | 1260 |  | 67.6
